Reference: US8796001B2, “Metalloenzyme inhibitor compounds” (Viamet Pharmaceuticals, Inc., priority 2011, dated 2014)

The molecules below were run on Puccinia recondita tritici = Puccinia triticina (PUCCRT) (assay: Fungicidal activity vs. leaf rust on wheat plants). Conditions: wheat (Yuma) sprayed at 50 ppm, inoculated the following day, rated 7-9 days later, read-out: Puccinia Rating (% Disease Control @ 50 ppm).
Type: in vivo
Source text: D. Evaluation of Fungicidal Activity vs. Leaf Rust (Causal Agent Puccinia Recondita Tritici=Puccinia Triticina; Bayer Code PUCCRT)
Each pot contained 3-8 seedlings. These plants were sprayed until wet with the formulated test compounds. The compounds were formulated at 50 ppm in 10 vol. % acetone plus 90 vol. % Triton X water (deionized water 99.99 wt %+0.01 wt % Triton X100), giving a “formulated test compound.” Formulated test compounds were applied to plants using a turn table sprayer fitted with two opposing air atomization nozzles which delivered approximately 1500 L/ha of spray volume. On the following day, the leaves were inoculated with an aqueous spore suspension of Puccinia recondita tritici and the plants were kept in high humidity overnight to permit spores to germinate and infect the leaf. The plants were then transferred to a greenhouse until disease developed on untreated control plants. Disease severity was evaluated 7-9 days later, depending on the speed of disease development.
In each case of Table 3, the Puccinia rating scale is as follows: […]

`OC(Cn1cnnn1)(c1ccc(F)cc1F)C(F)(F)c1ccc(Oc2ccc(C(F)(F)F)cc2)cn1` (centres unmarked) [Compound 75, 2-(2,4-Difluorophenyl)-1,1-difluoro-3-(1H-tetrazol-1-yl)-1-(5-(4-(trifluoromethyl)phenoxy)pyridin-2-yl)propan-2-ol] and `OC(Cn1cnnn1)(c1ccc(F)cc1F)C(F)(F)c1ccc(Oc2ccc(OC(F)(F)F)cc2)cn1` (centres unmarked) [Compound 76, 2-(2,4-Difluorophenyl)-1,1-difluoro-3-(1H-tetrazol-1-yl)-1-(5-(4-(trifluoromethoxy)phenoxy)pyridin-2-yl)propan-2-ol] fall in the same range of pest or weed control at 50 ppm: 80 to 100% for the first, 80 to 100% for the second.

First: OC(Cn1cnnn1)(c1ccc(F)cc1F)C(F)(F)c1ccc(Oc2cccc(F)c2)cn1 (centres unmarked) [Compound 77, 2-(2,4-Difluorophenyl)-1,1-difluoro-1-(5-(3-fluorophenoxy)pyridin-2-yl)-3-(1H-tetrazol-1-yl)propan-2-ol]
Second: OC(Cn1cnnn1)(c1ccc(F)cc1F)C(F)(F)c1ccc(Oc2cccc(Cl)c2)cn1 (centres unmarked) [Compound 84, 1-(5-(3-Chlorophenoxy)pyridin-2-yl)-2-(2,4-difluorophenyl)-1,1-difluoro-3-(1H-tetrazol-1-yl)propan-2-ol]
The pest or weed control at 50 ppm of the first is lower: 60 to 79% for the first, 80 to 100% for the second.

`N#Cc1cccc(Oc2ccc(C(F)(F)C(O)(Cn3cnnn3)c3ccc(F)cc3F)nc2)c1` (centres unmarked) [Compound 78, 3-((6-(2-(2,4-Difluorophenyl)-1,1-difluoro-2-hydroxy-3-(1H-tetrazol-1-yl)propyl)pyridin-3-yl)oxy)benzonitrile] and `COc1cccc(Oc2ccc(C(F)(F)C(O)(Cn3cnnn3)c3ccc(F)cc3F)nc2)c1` (centres unmarked) [Compound 85, 2-(2,4-Difluorophenyl)-1,1-difluoro-1-(5-(3-methoxyphenoxy)pyridin-2-yl)-3-(1H-tetrazol-1-yl)propan-2-ol] fall in the same range of pest or weed control at 50 ppm: 80 to 100% for the first, 80 to 100% for the second.

`N#Cc1ccc(Oc2ccc(C(F)(F)C(O)(Cn3cnnn3)c3ccc(Cl)cc3F)nc2)cc1` (centres unmarked) [Compound 79, 4-((6-(2-(4-Chloro-2-fluorophenyl)-1,1-difluoro-2-hydroxy-3-(1H-tetrazol-1-yl)propyl)pyridin-3-yl)oxy)benzonitrile] and `N#Cc1ccc(Oc2ccc(C(F)(F)C(O)(Cn3cnnn3)c3ccc(Cl)cc3F)nc2)cc1F` (centres unmarked) [Compound 81, 4-((6-(2-(4-Chloro-2-fluorophenyl)-1,1-difluoro-2-hydroxy-3-(1H-tetrazol-1-yl)propyl)pyridin-3-yl)oxy)-2-fluorobenzonitrile] fall in the same range of pest or weed control at 50 ppm: 80 to 100% for the first, 80 to 100% for the second.

First: N#Cc1ccc(COc2ccc(C(F)(F)C(O)(Cn3ncnn3)c3ccc(F)cc3F)nc2)cc1 (centres unmarked) [Compound 83, 4-(((6-(2-(2,4-Difluorophenyl)-1,1-difluoro-2-hydroxy-3-(2H-tetrazol-2-yl)propyl)pyridin-3-yl)oxy)methyl)benzonitrile]
Second: N#Cc1ccc(Oc2ccc(C(F)(F)C(O)(Cn3cnnn3)c3ccc(F)cc3F)nc2)nc1 (centres unmarked) [Compound 93, 6-((6-(2-(2,4-difluorophenyl)-1,1-difluoro-2-hydroxy-3-(1H-tetrazol-1-yl)propyl)pyridin-3-yl)oxy)nicotinonitrile]
The pest or weed control at 50 ppm of the first is lower: 40 to 59% for the first, 80 to 100% for the second.

`OC(Cn1cnnn1)(c1ccc(F)cc1F)C(F)(F)c1ccc(Oc2ccc(F)c(F)c2)cn1` (centres unmarked) [Compound 86, 1-(5-(3,4-Difluorophenoxy)pyridin-2-yl)-2-(2,4-difluorophenyl)-1,1-difluoro-3-(1H-tetrazol-1-yl)propan-2-ol] and `OC(Cn1cnnn1)(c1ccc(F)cc1F)C(F)(F)c1ccc(Oc2ccccc2F)cn1` (centres unmarked) [Compound 88, 2-(2,4-Difluorophenyl)-1,1-difluoro-1-(5-(2-fluorophenoxy)pyridin-2-yl)-3-(1H-tetrazol-1-yl)propan-2-ol] fall in the same range of pest or weed control at 50 ppm: 80 to 100% for the first, 80 to 100% for the second.

First: COc1ccc(Oc2ccc(C(F)(F)C(O)(Cn3cnnn3)c3ccc(F)cc3F)nc2)cc1 (centres unmarked) [Compound 87, 2-(2,4-Difluorophenyl)-1,1-difluoro-1-(5-(4-methoxyphenoxy)pyridin-2-yl)-3-(1H-tetrazol-1-yl)propan-2-ol]
Second: N#Cc1cc(Oc2ccc(C(F)(F)C(O)(Cn3cnnn3)c3ccc(F)cc3F)nc2)ccn1 (centres unmarked) [Compound 96, 4-((6-(2-(2,4-difluorophenyl)-1,1-difluoro-2-hydroxy-3-(1H-tetrazol-1-yl)propyl)pyridin-3-yl)oxy)picolinonitrile]
The pest or weed control at 50 ppm of the first is higher: 80 to 100% for the first, 60 to 79% for the second.

`N#Cc1ccc(Oc2ccc(C(F)(F)C(O)(Cn3cnnn3)c3ccc(F)cc3F)nc2)c(F)c1` (centres unmarked) [Compound 89, 4-((6-(2-(2,4-Difluorophenyl)-1,1-difluoro-2-hydroxy-3-(1H-tetrazol-1-yl)propyl)pyridin-3-yl)oxy)-3-fluorobenzonitrile] and `OC(Cn1cnnn1)(c1ccc(F)cc1F)C(F)(F)c1ccc(Oc2ccc(Cl)cn2)cn1` (centres unmarked) [Compound 95, 1-(5-((5-chloropyridin-2-yl)oxy)pyridin-2-yl)-2-(2,4-difluorophenyl)-1,1-difluoro-3-(1H-tetrazol-1-yl)propan-2-ol] fall in the same range of pest or weed control at 50 ppm: 80 to 100% for the first, 80 to 100% for the second.

`OC(Cn1cnnn1)(c1ccc(F)cc1F)C(F)(F)c1ccc(Oc2ncc(C(F)(F)F)cc2Cl)cn1` (centres unmarked) [Compound 92, 1-(5-((3-chloro-5-(trifluoromethyl)pyridin-2-yl)oxy)pyridin-2-yl)-2-(2,4-difluorophenyl)-1,1-difluoro-3-(1H-tetrazol-1-yl)propan-2-ol] and `OC(Cn1cnnn1)(c1ccc(F)cc1F)C(F)(F)c1ccc(Oc2ncc(C(F)(F)F)cc2F)cn1` (centres unmarked) [Compound 104, 2-(2,4-difluorophenyl)-1,1-difluoro-1-(5-((3-fluoro-5-(trifluoromethyl)pyridin-2-yl)oxy)pyridin-2-yl)-3-(1H-tetrazol-1-yl)propan-2-ol] fall in the same range of pest or weed control at 50 ppm: 80 to 100% for the first, 80 to 100% for the second.

`OC(Cn1cnnn1)(c1ccc(F)cc1F)C(F)(F)c1ccc(Oc2ccc(C(F)(F)F)cn2)cn1` (centres unmarked) [Compound 94, 2-(2,4-difluorophenyl)-1,1-difluoro-3-(1H-tetrazol-1-yl)-1-(5-((5-(trifluoromethyl)pyridin-2-yl)oxy)pyridin-2-yl)propan-2-ol] and `OC(Cn1cnnn1)(c1ccc(F)cc1F)C(F)(F)c1ccc(Oc2ccc(Br)cn2)cn1` (centres unmarked) [Compound 106, 1-(5-((5-bromopyridin-2-yl)oxy)pyridin-2-yl)-2-(2,4-difluorophenyl)-1,1-difluoro-3-(1H-tetrazol-1-yl)propan-2-ol] fall in the same range of pest or weed control at 50 ppm: 80 to 100% for the first, 80 to 100% for the second.

`OC(Cn1cnnn1)(c1ccc(F)cc1F)C(F)(F)c1ccc(Oc2ncccn2)cn1` (centres unmarked) [Compound 97, 2-(2,4-difluorophenyl)-1,1-difluoro-1-(5-(pyrimidin-2-yloxy)pyridin-2-yl)-3-(1H-tetrazol-1-yl)propan-2-ol] and `OC(Cn1cnnn1)(c1ccc(F)cc1F)C(F)(F)c1ccc(Oc2ncc(Cl)cn2)cn1` (centres unmarked) [Compound 98, 1-(5-((5-chloropyrimidin-2-yl)oxy)pyridin-2-yl)-2-(2,4-difluorophenyl)-1,1-difluoro-3-(1H-tetrazol-1-yl)propan-2-ol] fall in the same range of pest or weed control at 50 ppm: 80 to 100% for the first, 80 to 100% for the second.

`OC(Cn1cnnn1)(c1ccc(F)cc1F)C(F)(F)c1ccc(Oc2ncc(Br)cn2)cn1` (centres unmarked) [Compound 99, 1-(5-((5-bromopyrimidin-2-yl)oxy)pyridin-2-yl)-2-(2,4-difluorophenyl)-1,1-difluoro-3-(1H-tetrazol-1-yl)propan-2-ol] and `OC(Cn1cnnn1)(c1ccc(F)cc1F)C(F)(F)c1ccc(Oc2ncc(C(F)(F)F)cn2)cn1` (centres unmarked) [Compound 105, 2-(2,4-difluorophenyl)-1,1-difluoro-3-(1H-tetrazol-1-yl)-1-(5-((5-(trifluoromethyl)pyrimidin-2-yl)oxy)pyridin-2-yl)propan-2-ol] fall in the same range of pest or weed control at 50 ppm: 80 to 100% for the first, 80 to 100% for the second.

Compared with `N#Cc1ncc(Oc2ccc(C(F)(F)C(O)(Cn3cnnn3)c3ccc(F)cc3F)nc2)cn1` (centres unmarked) [Compound 100, 5-((6-(2-(2,4-difluorophenyl)-1,1-difluoro-2-hydroxy-3-(1H-tetrazol-1-yl)propyl)pyridin-3-yl)oxy)pyrimidine-2-carbonitrile], `N#Cc1cnc(Oc2ccc(C(F)(F)C(O)(Cn3cnnn3)c3ccc(F)cc3F)nc2)s1` (centres unmarked) [Compound 107, 2-((6-(2-(2,4-difluorophenyl)-1,1-difluoro-2-hydroxy-3-(1H-tetrazol-1-yl)propyl)pyridin-3-yl)oxy)thiazole-5-carbonitrile] is lower in pest or weed control at 50 ppm: 60 to 79% for the first, less than 40% for the second.

First: O=Cc1ccc(Oc2ccc(C(F)(F)C(O)(Cn3cnnn3)c3ccc(F)cc3F)nc2)nc1 (centres unmarked) [Compound 101, 6-((6-(2-(2,4-difluorophenyl)-1,1-difluoro-2-hydroxy-3-(1H-tetrazol-1-yl)propyl)pyridin-3-yl)oxy)nicotinaldehyde]
Second: CO/N=C/c1ccc(Oc2ccc(C(F)(F)C(O)(Cn3cnnn3)c3ccc(F)cc3F)nc2)nc1 (centres unmarked) [Compound 102, (E)-6-((6-(2-(2,4-difluorophenyl)-1,1-difluoro-2-hydroxy-3-(1H-tetrazol-1-yl)propyl)pyridin-3-yl)oxy)nicotinaldehyde O-methyl oxime]
The pest or weed control at 50 ppm of the first is lower: less than 40% for the first, 80 to 100% for the second.

Work on `OC(Cn1cnnn1)(c1ccc(F)cc1F)C(F)(F)c1ccc(Oc2ccc(/C=N/OCc3ccccc3)cn2)cn1` (centres unmarked) [Compound 103, (E)-6-((6-(2-(2,4-difluorophenyl)-1,1-difluoro-2-hydroxy-3-(1H-tetrazol-1-yl)propyl)pyridin-3-yl)oxy)nicotinaldehyde O-benzyl oxime] yielded a pest or weed control at 50 ppm of 60 to 79%.
